Test results from ChEMBL document CHEMBL1201862, “PubChem BioAssay data set” (2004).
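1) Cells in 96-well plates. 2) Compound, 48 h, 5 concentrations. 3) Linear interpolation between surrounding doses. 4) Unreached endpoint = highest concentration. The concentration for 50% growth inhibition is given as GI50.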 Activity calls are given as the source filed them. No stated cut-off is given here; in the data, active = GI50 up to about 1.1 µM and inactive = higher.

Assays:
Experiment in all cases: NCI-60 cell line screen, 48 h
HT-29 = system: HT-29
NCI-H23 = system: NCI-H23
HOP-18 = system: HOP-18
786-0 = system: 786-0
SNB-19 = system: SNB-19
OVCAR-3 = system: OVCAR-3
SK-MEL-2 = system: SK-MEL-2
HL-60 = system: HL-60
SK-MEL-5 = system: SK-MEL-5
EKVX = system: EKVX
MOLT-4 = system: MOLT-4
RXF 393 = system: RXF 393
HCT-116 = system: HCT-116
DMS-273 = system: DMS-273
SF-268 = system: SF-268
SNB-75 = system: SNB-75
CCRF-CEM = system: CCRF-CEM
UACC-257 = system: UACC-257
NCI-H460 = system: NCI-H460
A498 = system: A498
RPMI-8226 = system: RPMI-8226
K562 = system: K562
A549 = system: A549
HOP-62 = system: HOP-62
DLD-1 = system: DLD-1
SN12C = system: SN12C
TK-10 = system: TK-10
SNB-78 = system: SNB-78
LXFL 529 = system: LXFL 529
OVCAR-4 = system: OVCAR-4
CAKI-1 = system: CAKI-1
OVCAR-5 = system: OVCAR-5
SF-539 = system: SF-539
UO-31 = system: UO-31
IGROV-1 = system: IGROV-1
HCT-15 = system: HCT-15
LOX IMVI = system: LOX IMVI
OVCAR-8 = system: OVCAR-8
U-251 = system: U-251
UACC-62 = system: UACC-62
SF-295 = system: SF-295
ACHN = system: ACHN
M14 = system: M14
SR = system: SR
HCC 2998 = system: HCC 2998
XF498 = system: XF498
SK-OV-3 = system: SK-OV-3
M19-MEL = system: M19-MEL
KM12 = system: KM12
Malme-3M = system: Malme-3M
KM-20L2 = system: KM-20L2
RXF 631 = system: RXF 631
SK-MEL-28 = system: SK-MEL-28
NCI-H522 = system: NCI-H522
HOP-92 = system: HOP-92
NCI-H226 = system: NCI-H226
SW-620 = system: SW-620
DMS-114 = system: DMS-114

O=C(O)CCC(NC(=O)c1ccc(Nc2nc3ccccc3nc2-c2cccs2)cc1)C(=O)O (stereo not drawn)
GI50 (HT-29): > 100 µM (inactive) | GI50 (NCI-H23): > 100 µM (inactive) | GI50 (HOP-18): > 100 µM (inactive) | GI50 (786-0): > 100 µM (inactive) | GI50 (SNB-19): > 100 µM (inactive) | GI50 (OVCAR-3): > 100 µM (inactive) | GI50 (SK-MEL-2): > 100 µM (inactive) | GI50 (HL-60): > 100 µM (inactive) | GI50 (SK-MEL-5): > 100 µM (inactive) | GI50 (EKVX): > 100 µM (inactive) | GI50 (MOLT-4): > 100 µM (inactive) | GI50 (RXF 393): > 100 µM (inactive) | GI50 (HCT-116): > 100 µM (inactive) | GI50 (DMS-273): > 100 µM (inactive) | GI50 (SF-268): > 100 µM (inactive) | GI50 (SNB-75): > 100 µM (inactive) | GI50 (CCRF-CEM): > 100 µM (inactive) | GI50 (UACC-257): > 100 µM (inactive) | GI50 (NCI-H460): > 100 µM (inactive) | GI50 (A498): > 100 µM (inactive) | GI50 (RPMI-8226): > 100 µM (inactive) | GI50 (K562): > 100 µM (inactive) | GI50 (A549): > 100 µM (inactive) | GI50 (HOP-62): > 100 µM (inactive) | GI50 (DLD-1): > 100 µM (inactive) | GI50 (SN12C): > 100 µM (inactive) | GI50 (TK-10): > 100 µM (inactive) | GI50 (SNB-78): > 100 µM (inactive) | GI50 (LXFL 529): > 100 µM (inactive) | GI50 (OVCAR-4): > 100 µM (inactive) | GI50 (CAKI-1): > 100 µM (inactive) | GI50 (OVCAR-5): > 100 µM (inactive) | GI50 (SF-539): > 100 µM (inactive) | GI50 (UO-31): > 100 µM (inactive) | GI50 (IGROV-1): > 100 µM (inactive) | GI50 (HCT-15): > 100 µM | GI50 (LOX IMVI): > 100 µM (inactive) | GI50 (OVCAR-8): > 100 µM (inactive) | GI50 (U-251): > 100 µM (inactive) | GI50 (UACC-62): > 100 µM (inactive) | GI50 (SF-295): > 100 µM (inactive) | GI50 (ACHN): > 100 µM (inactive) | GI50 (M14): > 100 µM (inactive) | GI50 (SR): > 100 µM (inactive) | GI50 (HCC 2998): > 100 µM (inactive) | GI50 (XF498): > 100 µM (inactive) | GI50 (SK-OV-3): > 100 µM (inactive) | GI50 (M19-MEL): > 100 µM (inactive) | GI50 (KM12): > 100 µM (inactive) | GI50 (Malme-3M): > 100 µM (inactive) | GI50 (KM-20L2): > 100 µM (inactive) | GI50 (RXF 631): > 100 µM (inactive) | GI50 (SK-MEL-28): > 100 µM (inactive) | GI50 (NCI-H522): > 100 µM (inactive) | GI50 (HOP-92): > 100 µM (inactive) | GI50 (NCI-H226): > 100 µM (inactive) | GI50 (SW-620): > 100 µM (inactive) | GI50 (DMS-114): > 100 µM (inactive)
